The record followed here is patent US12121498B2 (priority 2018, dated 2024).

Data set [1] addresses GABAA, Chloride Channel, TBPS. Nature of the data set: Radioligand ([35S]TBPS)-receptor competitive binding assay for GABAA receptor. Also on record: species or system Rat. The settings on record: for IC50: [35S]TBPS, test concentration 30, 10, 3, 1, 0.3 uM; for Affinity for the GABAA receptor: result in words, compared with dipropofol.
The nature of the next data set: in vivo. The settings on record: rats; for concentration at 5 min / concentration at 15 min / concentration at 30 min / concentration at 1 h / concentration at 2 h / concentration at 4 h: SD, rat, in vivo, iv, average, read-out: Drug concentrations in brain tissue; for concentration at 5 min: 5 min after administration; for concentration at 15 min: 15 min after administration; for concentration at 30 min: 30 min after administration; for concentration at 1 h: 1 h after administration; for concentration at 2 h: 2 h after administration; for concentration at 4 h: 4 h after administration. The format is in vivo, SD rats. Here is the method:
1. Comparative Assay for the Distribution of Compound XA-1-7 and Dipropofol (3,3′,5,5′-Tetraisopropyl Biphenyl-4,4′-Diol) in the Brain Tissue of Rats after Intravenous Administration
72 SD rats, each weighing 200 to 220 g, were randomly divided into 12 groups (6 per group at a time), and fasted for 12 hours before administration. Compound XA-1-7 or dipropofol was injected intravenously at a dose of 45 mg/kg, and the rats were sacrificed at 5 min, 15 min, 30 min, 1 h, 2 h, and 4 h after administration, immediately after which the brain tissue was removed, rinsed with ice-cold distilled water, blotted up, and cryopreserved at −40° C. The concentrations of Compound XA-1-7 or dipropofol in the brain tissue of rats at different time points after administration were measured by LC-MS/MS.

As for `CCCc1cc(-c2cc(C(C)C)c(O)c(C(C)C)c2)cc(CCC)c1O` [Compound 1, 3,5-diisopropyl-3′,5′-dipropyl-[1,1′-biphenyl]-4,4′-diol], in data set [1], the IC50 (commonly the midpoint of a concentration-inhibition curve) was 1820 nM and the “Affinity for the GABAA receptor” value is “high affinity”. Also, in the data set “in vivo” (i.v. 45 mg/kg), the concentration at 5 min was 37600 ng/g, the concentration at 15 min worked out at 39600 ng/g, the concentration at 30 min turned out to be 38100 ng/g and the concentration at 1 h was found to be 33900 ng/g. Further, in “in vivo” (i.v. 45 mg/kg), the concentration at 2 h stood at 24600 ng/g, the concentration at 4 h is 6870 ng/g, the “AUC0-4 h in the brain tissue relative to that of the dipropofol” value is “about 1.36 times” and the “Peak time of the concentration in the brain tissue” value was determined as 15 min. For the same compound, the “Concentration in the brain tissue relative to that of the dipropofol” value in “in vivo” (5 minutes after intravenous injection, 45 mg/kg) is on record as “about 3 times”. Moreover, the “Delivering speed into the brain and level in the brain compared with dipropofol” value in “in vivo” (intravenous administration at the same dosage, result in words) was “significantly higher”.

As to `CCCc1cc(-c2cc(C(C)C)c(O)c(C(C)C)c2)cc(C(C)C)c1O` [Compound 2, 3,3′,5-triisopropyl-5′-propyl-biphenyl-4,4′-diol], in data set [1], the 50% inhibitory concentration (IC50) worked out at 2110 nM and the “Affinity for the GABAA receptor” value is “high affinity”.

Regarding `CCCc1cc(-c2cc(CCC)c(O)c(C(C)C)c2)cc(CCC)c1O` [Compound 3, 3-isopropyl-3′,5,5′-tripropyl-biphenyl-4,4′-diol], in data set [1], the IC50 amounted to 2690 nM and the “Affinity for the GABAA receptor” value is “high affinity”.

In turn, `CC(C)c1cc(-c2cc(C(C)C)c(O)c(C(C)C)c2)cc(C(C)C)c1O` [Dipropofol, 3,3′,5,5′-tetraisopropylbiphenyl-4,4′-diol, reference compound] had an IC50 in data set [1] of 2060 nM. Moreover, in the data set “in vivo” (i.v. 45 mg/kg), the concentration at 5 min was found to be 12800 ng/g, the concentration at 15 min amounted to 24100 ng/g, the concentration at 30 min turned out to be 32500 ng/g and the concentration at 1 h came to 26600 ng/g. Also, in “in vivo” (i.v. 45 mg/kg), the concentration at 2 h turned out to be 17900 ng/g, the concentration at 4 h is 5520 ng/g and the “Peak time of the concentration in the brain tissue” value is 30 min.
